According to patent publication US9415114B2, “Conformations of divergent peptides with mineral binding affinity” (KAOHSIUNG MEDICAL UNIVERSITY, priority 2011, dated 2016):

Test: Hydroxylapatite column test (retention time on HAp column by HPLC)
Format: binding
Conditions: HAp column 0.7 x 5 cm, eluent 0.5 mM PBS pH 7.4, flow rate 0.25 mL/min, 220 nm; longer retention = higher mineral affinity
Method: Hydroxylapatite Column Test
Using the column which is filling hydroxylapatite particles to evaluate the affinity. The diameter and length of hydroxylapatite column are 0.7 and 5 cm, and experimented by High Performance Liquid Chromatography system. The elute solution is 0.5 mM PBS (pH 7.4), the flow rate is 0.25 mL/min, and the wavelength is 220 nm.

Substance | retention time in hydroxylapatite column test
H2N-(Gly)3-(Asp)3-NHAc [L1c] | 13.0 min
HO-Gly-(Asp)6-NHAc [L1b] | 13.3 min
